The results in this text go back to US7629313B2, “Immunomodulatory polymeric antigens for treating inflammatory pathologies” (Eli Lilly and Company, priority 2003, dated 2009).

Experiment [1] relates to human monocyte-derived iDC. Nature of the experiment: Uptake of fluorescent polymer by iDCs, confocal microscopy. The format is cell-based. The following applies: two minutes incubation at 37° C.; labeled Compound 15 50 μg/ml, FITC-dextran 1 mg/ml. On the procedure: Oregon-green labeled Compound 15 is prepared as described in PCT International Publication WO 01/79242. Briefly, Oregon-green (Molecular Probes, Eugene, Oreg.)-conjugated Lipid II is included in an MtgA-polymerization reaction at a ratio of 1:4 with unlabeled Lipid 11 to produce a 25% Oregon-green labeled polymer. The polymeric material is purified and treated as previously described. For uptake studies, fluorescent Compound 15 at a final concentration of 50 μg/ml, or Lysine-fixable FITC-conjugated dextran (40 kDa size, Molecular Probes, Eugene, Oreg.) at 1 mg/ml, is incubated with human monocyte-derived iDC prepared as described in Example 5 for two minutes at 37° C. After incubation, extracellular probe is removed by washing the cells four times in ice cold complete DC medium (Example 5). Washed cells are then incubated at 37° C. and staining is stopped at two-minute intervals by washing in 1% paraformaldehyde fix diluted in flow wash solution (which also contains the metabolic poison sodium azide; protocol described in Example 5). Glass slide samples are prepared at each time interval and sealed with clear nail polish. Samples are stored at −20° C. and protected from light until analysis on a Radiance 2100 confocal microscope (BioRad Laboratories, Hercules, Calif.).

Experiment [2] concerns human monocyte-derived dendritic cells. Nature of the experiment: Kinetics of fluorescent polymer uptake by iDCs, flow cytometry. The format is cell-based. The following applies: labeled Compound 15 50 μg/ml, FITC-dextran 1 mg/ml. As to the method: In these experiments, human monocyte-derived dendritic cells are prepared as described in Example 5. Dendritic cells are resuspended at 5×10^5 cells/sample and incubated […] at 37° C. At the start of each time course, cells are incubated with either fluorescent Compound 15 at a final concentration of 50 μg/ml or Lysine-fixable FITC-conjugated dextran (40 kDa size, Molecular Probes, Eugene, Oreg.) at 1 mg/ml. At 0, 2, 10, 20, 30, 40, and 50 minutes after the start of incubation, uptake is stopped by washing the cells with four washes of ice cold flow wash buffer (Example 5). The washed cells are fixed in paraformaldehyde also as described in Example 5. Stained, fixed cells are stored at 4° C. protected from light until analysis using a FC500 flow cytometer (Beckman Coulter, Miami, Fla.). Once cells are correctly gated for forward and side scatter profiles, mean fluorescent intensity of the population is evaluated for 10,000 cells/sample. […] To control for non-specific adhesion of the molecules to the cell surface (which could be read as a positive in this assay), cells are also incubated with fluorescent polymers at 0° C. […] At this temperature, signal from neither the control molecule (FITC-dextran) nor Compound 15 increases over time (FIG. 5).
In general terms: Flow cytometry measures light scatter and fluorescence of single cells or particles in a stream.

In the case of FITC-Dextran, in experiment [1], the “Intracellular localization of polymer in iDCs (confocal images)” value is “Localization of polymer in endocytic vacuoles”. In experiment [2], the “Uptake by DC at 0° C. (cells metabolically inactive)” value is recorded as “inhibited”.
